Consider eleven molecules from PubChem BioAssay (NCI).

Each structure is given as a SMILES string. Several values for one entry are separate records, joined by “and”; a condition that tells them apart may be missing. Identical values can stand only once.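 Each compound was tested at five concentrations against cells in 96-well plates for 48 hours. GI50 is the concentration that inhibits growth by half. TGI is the concentration that stops growth completely.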

What all share (test): NCI-60 cell line screen, 48 h
Test [1] has as its system NCI-H23 lung.
Test [2] has as its system 786-0 renal.
Test [3] has as its system SNB-75 CNS.
The test system of test [4] is SN12C renal.
Test [5] has as its system SR leukemia.
Test [6] concerns NCI/ADR-RES ovarian.
The test system of test [7] is M14 melanoma.
Test [8] deals with BT-549 breast.

As to `O=C(CSc1ncc(-c2ccccc2)n1-c1ccccc1)Nc1ccc(-c2nc3ccccc3s2)cc1`, the GI50 is 20.4 µM in test [1], 5.34 µM in test [2], 11.1 µM in test [3] and 71.5 µM in test [4]. Further, the TGI in test [1] was > 100 µM; in test [2], > 100 µM; in test [3], 29.6 µM; in test [4], > 100 µM.
Consider `FC(F)(F)c1ccc(NCc2nc3ccccc3[nH]2)cc1`, for which the GI50 in test [1] was 22.9 µM; in test [5], 28.3 µM; in test [6], 21.9 µM; in test [2], 30.7 µM; in test [7] it was 24.7 µM; in test [3] it was 23 µM. Moreover, the GI50 was 31.1 µM in test [8] and 29.7 µM in test [4]. In addition, the TGI in test [1] is 80.2 µM; in test [5] it was > 100 µM; in test [6] it was 67.2 µM; in test [2], > 100 µM; in test [7], > 100 µM; in test [3], > 100 µM. Also, the TGI in test [8] is 97.5 µM; in test [4], > 100 µM.
As to `O=C(c1ccco1)c1c(C(F)(F)F)n([O-])c2ccc(F)cc2[n+]1=O`, the GI50 in test [1] is 1.02 µM; in test [6] it was 2.19 µM; in test [2], 1.27 µM; in test [7], 1.48 µM; in test [3] it was 1.59 µM; in test [8] it was 0.996 µM. Moreover, in test [4], the GI50 was 1.33 µM. In addition, the TGI was determined as 2.49 µM in test [1]; 5.59 µM in test [6]; 3.94 µM in test [2]; 2.93 µM in test [7]; 7.91 µM in test [3]; 2.98 µM in test [8]. The molecule also returned a TGI in test [4] of 3.38 µM.
With `COc1cc(/C=C/c2ccccn2)cc(OC)c1OC`, the TGI in test [1], in test [6], in test [2], in test [7], in test [3] and in test [8] was > 10 µM throughout. Besides, the TGI in test [4] was > 10 µM.
Regarding `Cc1cc(C#Cc2ccccc2)ccc1-n1c(/C=C/c2cc(O)ccc2O)nc2ccccc2c1=O`, the GI50 in test [1] was 1.48 µM; in test [5], 1.1 µM; in test [6], 2.06 µM; in test [2], 1.74 µM; in test [7], 1.54 µM; in test [3], 1.3 µM. Further, the GI50 in test [4] was 1.62 µM. For the same molecule, the TGI in test [1] was determined as 3.12 µM; in test [5] it was 2.87 µM; in test [6], 5.22 µM; in test [2], 3.15 µM; in test [7], 2.91 µM; in test [3], 2.78 µM. The molecule also showed a TGI in test [4] of 3.01 µM.
In the case of `COc1cccc(/C=C\c2ccnc3ccccc23)c1`, the TGI in test [1], in test [6], in test [2], in test [7], in test [3] and in test [8] was > 10 µM each time. For the same molecule, in test [4], the TGI was > 10 µM.
As to `O=C(O)c1cn(C2CC2)c2cc(N3CCN(Cc4ccc5ccccc5c4O)CC3)c(F)cc2c1=O`, the GI50 was 3.51 µM in test [1]; 2.34 µM in test [2]; 3.18 µM in test [7]; 1.87 µM in test [3]; 3.44 µM in test [4]. The TGI in test [1] is > 100 µM; in test [2] it was 5.42 µM; in test [7] it was > 100 µM; in test [3], 6.73 µM; in test [4], > 100 µM.
For the molecule `CC(C)[C@H](C(=O)O[C@@H]1/C=C/C(=O)O[C@@H](C)CCC/C=C/[C@@H]2C[C@H](O)C[C@H]21)N(C)C`, the GI50 was 16.8 µM in test [1]; 14.9 µM in test [5]; 14.9 µM in test [6]; 6.15 µM in test [2]; 11.1 µM in test [7]; 5.8 µM in test [3]. In addition, the values for the GI50 in test [8] and in test [4] were 7.13 µM and 26.7 µM, respectively. For the same molecule, the TGI in test [1] was > 83.6 µM; in test [5], 33.8 µM; in test [6] it was > 87.8 µM; in test [2], 21.1 µM; in test [7], > 63.8 µM; in test [3], > 43.2 µM. Also, the TGI is 35.6 µM in test [8] and > 68.7 µM in test [4].
`CC1COCCN1CC#CCOC(=O)c1cc2ccccc2oc1=O` (stereo unspecified): the GI50 in test [1] was > 100 µM; in test [6] it was > 100 µM; in test [2], > 100 µM; in test [3] it was 83.4 µM; in test [8] it was > 100 µM; in test [4] it was > 100 µM. The TGI in test [1], in test [6], in test [2], in test [3], in test [8] and in test [4] was > 100 µM throughout.
For the molecule `CCN(CCO)CCCOc1ccc2c(Nc3cc(CC(=O)Nc4cccc(F)c4)[nH]n3)ncnc2c1`, the GI50 in test [1] is 17.4 µM; in test [6], > 100 µM; in test [2] it was > 70.1 µM; in test [7], 20.9 µM; in test [8] it was 13 µM; in test [4] it was 19.8 µM. The TGI was > 53.1 µM in test [1]; 28 µM and > 3.87 µM in test [5]; > 100 µM in test [6]; > 100 µM in test [2]; > 56.2 µM in test [7]; 29.7 µM and > 3.6 µM in test [8]. Further, the TGI in test [4] was > 100 µM.
As to `C[C@H](c1ccccc1)N(CCC(=O)O)C(=O)CCN(C(=O)CCN(C(=O)CCN[C@H](C)c1ccccc1)[C@H](C)c1ccccc1)[C@H](C)c1ccccc1`, the GI50 in test [1] is > 100 µM; in test [6] it was > 100 µM; in test [2] it was > 100 µM; in test [7], > 100 µM; in test [3], 66.4 µM; in test [8] it was > 100 µM. In test [4], the GI50 was > 100 µM. Moreover, the TGI in test [1], in test [6], in test [2], in test [7], in test [3] and in test [8] was > 100 µM in each case. The TGI in test [4] is > 100 µM.
